Measured values as given in patent US10087229B2, “Peptide compound” (TAKEDA PHARMACEUTICAL COMPANY LIMITED, priority 2013, dated 2018).
Square brackets hold non-standard residues; d marks the D form. Peptide text beside a SMILES is read from it. * marks the point of attachment. αMeY = C[C@](N)(Cc1ccc(O)cc1)C(=O)O; αMeF = C[C@](N)(Cc1ccccc1)C(=O)O; Cha = N[C@@H](CC1CCCCC1)C(=O)O; Aib = CC(C)(N)C(=O)O; Bz = O=C(c1ccccc1)*

System: male C57BL/6J mouse
Assay: 2-days continuous subcutaneous administration test (feeding suppressive activity)
Format: in vivo
Conditions: 10 nmol/kg/day, subcutaneous Alzet pump, 2-days cumulative food consumption, control (solvent alone) = 0%
Method: 2-Days Continuous Subcutaneous Administration Test
The feeding suppressive activity of a test compound was examined by the method described below.
The test compound was dissolved in a solvent (50% DMSO) so that sustained release would occur at 10 nmol/kg/day, and the solution was filled in the Alzet Pump (DURECT Corporation, model: 1003D). The pump thus filled with the solution to be administered was immersed in physiological saline for priming, and then used. The pump was embedded by the following method. Each male C57BL/6J mouse at 8-9 weeks of age (20-26° C., allowed to take food and water ad libitum; 12-hour bright-12-hour dark cycle) was anesthetized; the skin in the upper back thereof was incised, and the above-mentioned pump was embedded subcutaneously; the incision was sutured. After weighing, this mouse was returned to the rearing cage (reared alone), and given previously weighed food; food consumption as of 2 days after the start of administration was measured. The food consumption was calculated by subtracting the amount of remaining food from the weight of the food given on the day of the start of administration. When the food consumption of a control group receiving administration of the solvent alone was regarded as a suppression rate of 0%, the feeding suppressive activity of each test compound was evaluated on the basis of 2-days cumulative food consumption after the start of administration. The food intake suppression rate (%) of the test compound was defined as (Food consumption of the control group−Food consumption of the test compound-administered group)/Food consumption of the control group×100.

Going from `CC[C@H](C)[C@H](NC(=O)C(C)(C)NC(=O)[C@H](Cc1ccc(O)cc1)NC(=O)[C@H](CC(=O)O)NC(=O)[C@H](CO)NC(=O)[C@@H](NC(=O)[C@](C)(Cc1ccccc1)NC(=O)[C@@H](NC(=O)CNC(=O)[C@H](CCC(=O)O)NC(=O)C(C)(C)NC(=O)[C@@H](N)Cc1ccc(O)cc1)[C@@H](C)O)[C@@H](C)O)C(=O)N[C@@H](CC1CCCCC1)C(=O)N[C@@H](CC(C)C)C(=O)N[C@@H](CC(=O)O)C(=O)N[C@@H](CCCCN)C(=O)N[C@@H](CCC(N)=O)C(=O)N[C@@H](C)C(=O)N[C@@H](CCC(N)=O)C(=O)N[C@@H](C)C(=O)N[C@@H](CCC(=O)O)C(=O)N[C@@H](Cc1ccccc1)C(=O)N[C@H](C(=O)N[C@@H](CCCCN)C(=O)N[C@@H](Cc1c[nH]c2ccccc12)C(=O)N[C@@H](CC(C)C)C(=O)N[C@@H](CC(C)C)C(=O)N[C@@H](CCCCN)C(=O)NCC(=O)NCC(=O)N1CCC[C@H]1C(=O)N[C@@H](CO)C(=O)N[C@@H](CO)C(=O)NCC(=O)N[C@@H](C)C(=O)N1CCC[C@H]1C(=O)N1CCC[C@H]1C(=O)N1CCC[C@H]1C(=O)N[C@@H](CO)C(=O)N[C@@H](CCCCN)C(N)=O)C(C)C` [Example 14] (H-Y[Aib]EGT[αMeF]TSDY[Aib]I[Cha]LDKQAQAEFVKWLLKGGPSSGAPPPSK-NH2) to `CC(C)C[C@H](NC(=O)[C@H](CC(C)C)NC(=O)[C@H](Cc1c[nH]c2ccccc12)NC(=O)[C@H](CCCCN)NC(=O)[C@@H](NC(=O)[C@H](Cc1ccccc1)NC(=O)[C@H](CCC(=O)O)NC(=O)[C@H](C)NC(=O)[C@H](CCC(N)=O)NC(=O)[C@H](C)NC(=O)[C@H](CCC(N)=O)NC(=O)[C@H](CCCCN)NC(=O)[C@H](CC(=O)O)NC(=O)[C@H](CC(C)C)NC(=O)[C@H](CC1CCCCC1)NC(=O)[C@H](CCCCN)NC(=O)C(C)(C)NC(=O)[C@H](Cc1ccc(O)cc1)NC(=O)[C@H](CC(=O)O)NC(=O)[C@H](CO)NC(=O)[C@@H](NC(=O)[C@](C)(Cc1ccccc1)NC(=O)[C@@H](NC(=O)CNC(=O)[C@H](CCC(=O)O)NC(=O)C(C)(C)NC(=O)[C@@H](N)Cc1ccc(O)cc1)[C@@H](C)O)[C@@H](C)O)C(C)C)C(=O)N[C@@H](CCCCN)C(=O)NCC(=O)NCC(=O)N1CCC[C@H]1C(=O)N[C@@H](CO)C(=O)N[C@@H](CO)C(=O)NCC(=O)N[C@@H](C)C(=O)N1CCC[C@H]1C(=O)N1CCC[C@H]1C(=O)N1CCC[C@H]1C(=O)N[C@@H](CO)C(=O)N[C@@H](CCCCN)C(N)=O` [Example 16] (H-Y[Aib]EGT[αMeF]TSDY[Aib]K[Cha]LDKQAQAEFVKWLLKGGPSSGAPPPSK-NH2), the “Food intake suppression (%)” value rises from 47.47% to 54.24%.

Compared with `CC(C)C[C@H](NC(=O)[C@H](CC(C)C)NC(=O)[C@H](Cc1c[nH]c2ccccc12)NC(=O)[C@H](CCCCN)NC(=O)[C@@H](NC(=O)[C@H](Cc1ccccc1)NC(=O)[C@H](CCC(=O)O)NC(=O)[C@H](C)NC(=O)[C@H](CCC(N)=O)NC(=O)[C@H](C)NC(=O)[C@H](CCC(N)=O)NC(=O)[C@H](CCCCN)NC(=O)[C@H](CC(=O)O)NC(=O)[C@H](CC(C)C)NC(=O)C(C)(C)NC(=O)[C@H](CCCCN)NC(=O)C(C)(C)NC(=O)[C@H](Cc1ccc(O)cc1)NC(=O)[C@H](CC(=O)O)NC(=O)[C@H](CO)NC(=O)[C@@H](NC(=O)[C@](C)(Cc1ccccc1)NC(=O)[C@@H](NC(=O)CNC(=O)[C@H](CCC(=O)O)NC(=O)C(C)(C)NC(=O)[C@@H](N)Cc1ccc(O)cc1)[C@@H](C)O)[C@@H](C)O)C(C)C)C(=O)N[C@@H](CCCCN)C(=O)NCC(=O)NCC(=O)N1CCC[C@H]1C(=O)N[C@@H](CO)C(=O)N[C@@H](CO)C(=O)NCC(=O)N[C@@H](C)C(=O)N1CCC[C@H]1C(=O)N1CCC[C@H]1C(=O)N1CCC[C@H]1C(=O)N[C@@H](CO)C(=O)N[C@@H](CCCCN)C(N)=O` [Example 9] (H-Y[Aib]EGT[αMeF]TSDY[Aib]K[Aib]LDKQAQAEFVKWLLKGGPSSGAPPPSK-NH2), `CC[C@H](C)[C@H](NC(=O)[C@H](C)NC(=O)[C@H](Cc1ccc(O)cc1)NC(=O)[C@H](CC(=O)O)NC(=O)[C@H](CO)NC(=O)[C@@H](NC(=O)[C@](C)(Cc1ccccc1)NC(=O)[C@@H](NC(=O)CNC(=O)[C@H](CCC(=O)O)NC(=O)C(C)(C)NC(=O)[C@@H](N)Cc1ccc(O)cc1)[C@@H](C)O)[C@@H](C)O)C(=O)NC(C)(C)C(=O)N[C@@H](CC(C)C)C(=O)N[C@@H](CC(=O)O)C(=O)N[C@@H](CCCCN)C(=O)N[C@@H](CCC(N)=O)C(=O)N[C@@H](C)C(=O)N[C@@H](CCC(N)=O)C(=O)N[C@@H](C)C(=O)N[C@@H](CCC(=O)O)C(=O)N[C@@H](Cc1ccccc1)C(=O)N[C@H](C(=O)N[C@@H](CCCCN)C(=O)N[C@@H](Cc1c[nH]c2ccccc12)C(=O)N[C@@H](CC(C)C)C(=O)N[C@@H](CC(C)C)C(=O)N[C@@H](CCCCN)C(=O)NCC(=O)NCC(=O)N1CCC[C@H]1C(=O)N[C@@H](CO)C(=O)N[C@@H](CO)C(=O)NCC(=O)N[C@@H](C)C(=O)N1CCC[C@H]1C(=O)N1CCC[C@H]1C(=O)N1CCC[C@H]1C(=O)N[C@@H](CO)C(=O)N[C@@H](CCCCN)C(N)=O)C(C)C` [Example 1] (H-Y[Aib]EGT[αMeF]TSDYAI[Aib]LDKQAQAEFVKWLLKGGPSSGAPPPSK-NH2) is lower in “Food intake suppression (%)” value: 45.23% for the first, 42.68% for the second.

First: CC[C@H](C)[C@H](NC(=O)C(C)(C)NC(=O)[C@H](Cc1ccc(O)cc1)NC(=O)[C@H](CC(=O)O)NC(=O)[C@H](CO)NC(=O)[C@@H](NC(=O)[C@](C)(Cc1ccccc1)NC(=O)[C@@H](NC(=O)CNC(=O)[C@H](CCC(=O)O)NC(=O)C(C)(C)NC(=O)[C@@H](N)Cc1ccc(O)cc1)[C@@H](C)O)[C@@H](C)O)C(=O)N[C@@](C)(Cc1ccc(O)cc1)C(=O)N[C@@H](CC(C)C)C(=O)N[C@@H](CC(=O)O)C(=O)N[C@@H](CCCCN)C(=O)N[C@@H](CCC(N)=O)C(=O)N[C@@H](C)C(=O)N[C@@H](CCC(N)=O)C(=O)N[C@@H](C)C(=O)N[C@@H](CCC(=O)O)C(=O)N[C@@H](Cc1ccccc1)C(=O)N[C@H](C(=O)N[C@@H](CCCCN)C(=O)N[C@@H](Cc1c[nH]c2ccccc12)C(=O)N[C@@H](CC(C)C)C(=O)N[C@@H](CC(C)C)C(=O)N[C@@H](CCCCN)C(=O)NCC(=O)NCC(=O)N1CCC[C@H]1C(=O)N[C@@H](CO)C(=O)N[C@@H](CO)C(=O)NCC(=O)N[C@@H](C)C(=O)N1CCC[C@H]1C(=O)N1CCC[C@H]1C(=O)N1CCC[C@H]1C(=O)N[C@@H](CO)C(=O)N[C@@H](CCCCN)C(N)=O)C(C)C [Example 17] (H-Y[Aib]EGT[αMeF]TSDY[Aib]I[αMeY]LDKQAQAEFVKWLLKGGPSSGAPPPSK-NH2)
Second: CC[C@H](C)[C@H](NC(=O)C(C)(C)NC(=O)[C@H](Cc1ccc(O)cc1)NC(=O)[C@H](CC(=O)O)NC(=O)[C@H](CO)NC(=O)[C@@H](NC(=O)[C@](C)(Cc1ccccc1)NC(=O)[C@@H](NC(=O)CNC(=O)[C@H](CCC(=O)O)NC(=O)C(C)(C)NC(=O)[C@H](Cc1ccc(O)cc1)NC(=O)c1ccccc1)[C@@H](C)O)[C@@H](C)O)C(=O)NC(C)(C)C(=O)N[C@@H](CC(C)C)C(=O)N[C@@H](CC(=O)O)C(=O)N[C@@H](CCCCN)C(=O)N[C@@H](CCC(N)=O)C(=O)N[C@@H](C)C(=O)N[C@@H](CCC(N)=O)C(=O)N[C@@H](C)C(=O)N[C@@H](CCC(=O)O)C(=O)N[C@@H](Cc1ccccc1)C(=O)N[C@H](C(=O)N[C@@H](CCCCN)C(=O)N[C@@H](Cc1c[nH]c2ccccc12)C(=O)N[C@@H](CC(C)C)C(=O)N[C@@H](CC(C)C)C(=O)N[C@@H](CCCCN)C(=O)NCC(=O)NCC(=O)N1CCC[C@H]1C(=O)N[C@@H](CO)C(=O)N[C@@H](CO)C(=O)NCC(=O)N[C@@H](C)C(=O)N1CCC[C@H]1C(=O)N1CCC[C@H]1C(=O)N1CCC[C@H]1C(=O)N[C@@H](CO)C(=O)N[C@@H](CCCCN)C(N)=O)C(C)C [Example 19] (Bz-Y[Aib]EGT[αMeF]TSDY[Aib]I[Aib]LDKQAQAEFVKWLLKGGPSSGAPPPSK-NH2)
The “Food intake suppression (%)” value of the first is higher: 55.42% for the first, 34.79% for the second.

`CC[C@H](C)[C@H](NC(=O)C(C)(C)NC(=O)[C@H](Cc1ccc(O)cc1)NC(=O)[C@H](CC(=O)O)NC(=O)[C@H](CO)NC(=O)[C@@H](NC(=O)[C@](C)(Cc1ccccc1)NC(=O)[C@@H](NC(=O)CNC(=O)[C@H](CCC(=O)O)NC(=O)C(C)(C)NC(=O)[C@@H](N)Cc1ccc(O)cc1)[C@@H](C)O)[C@@H](C)O)C(=O)NC(C)(C)C(=O)N[C@@H](CC(C)C)C(=O)N[C@@H](CC(=O)O)C(=O)N[C@@H](CCCCN)C(=O)N[C@@H](CCC(N)=O)C(=O)N[C@@H](C)C(=O)N[C@@H](CCC(N)=O)C(=O)N[C@@H](C)C(=O)N[C@@H](CCC(=O)O)C(=O)N[C@@H](Cc1ccccc1)C(=O)N[C@H](C(=O)N[C@@H](CCCCN)C(=O)N[C@@H](Cc1c[nH]c2ccccc12)C(=O)N[C@@H](CC(C)C)C(=O)N[C@@H](CC(C)C)C(=O)N[C@@H](CCCCN)C(=O)NCC(=O)NCC(=O)N1CCC[C@H]1C(=O)N[C@@H](CO)C(=O)N[C@@H](CO)C(=O)NCC(=O)N[C@@H](C)C(=O)N1CCC[C@H]1C(=O)N1CCC[C@H]1C(=O)N1CCC[C@H]1C(=O)N[C@@H](CO)C(N)=O)C(C)C` [Example 6] (H-Y[Aib]EGT[αMeF]TSDY[Aib]I[Aib]LDKQAQAEFVKWLLKGGPSSGAPPPS-NH2) was tested, and the “Food intake suppression (%)” value was 65.20%.
